# In patent publication US10588316B2 (priority 2015, dated 2020):
# Assays:
# Fusarium graminearum = experiment: microbe, parasite or virus in culture; assay type: cell-based
# [1] = test system: Fusarium graminearum and Fusarium asiaticum; experiment: organism not typed; assay type: cell-based; details: tebuconazole 0.078 μg/mL; sensitive and fungicide-resistant strains
substance,measurement,setting,value
Tebuconazole,Median Effective Concentration (EC50) for Growth Inhibition,Fusarium graminearum; F.g carbendazim-resistant strains,0.101 µg/mL
same,Median Effective Concentration (EC50) for Growth Inhibition,Fusarium graminearum; F.g phenamacril-resistant strains,0.085 µg/mL
same,inhibitory effect on hyphal growth,[1],~50%
